Experimental data taken from US8748429B2, “CGRP receptor antagonists” (Bristol-Myers Squibb Company, priority 2011, dated 2014).

The compounds below were run against Human CGRP Receptor (Homo sapiens, UniProt O60894+Q16602) (assay: Human CGRP Binding).
Chain of Human CGRP Receptor (Q16602 23-461): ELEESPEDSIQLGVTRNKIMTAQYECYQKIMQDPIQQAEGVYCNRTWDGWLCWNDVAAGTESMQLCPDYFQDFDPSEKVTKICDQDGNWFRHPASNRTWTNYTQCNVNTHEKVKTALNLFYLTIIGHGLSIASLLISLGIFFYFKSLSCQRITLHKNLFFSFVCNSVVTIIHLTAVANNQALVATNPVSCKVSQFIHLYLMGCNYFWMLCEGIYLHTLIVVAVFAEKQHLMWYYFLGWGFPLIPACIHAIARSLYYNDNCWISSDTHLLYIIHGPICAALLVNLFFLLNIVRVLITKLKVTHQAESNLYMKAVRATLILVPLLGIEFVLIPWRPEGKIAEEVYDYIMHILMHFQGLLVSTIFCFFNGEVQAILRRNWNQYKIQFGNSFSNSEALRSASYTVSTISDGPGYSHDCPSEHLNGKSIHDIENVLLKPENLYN
Chain of Human CGRP Receptor (O60894 27-148): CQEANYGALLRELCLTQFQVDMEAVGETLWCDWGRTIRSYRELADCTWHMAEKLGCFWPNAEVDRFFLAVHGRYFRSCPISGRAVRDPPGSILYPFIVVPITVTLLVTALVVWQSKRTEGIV
`N[C@@H]1c2scnc2[C@H](OC(=O)N2CCC(n3c(=O)[nH]c4ncccc43)CC2)CC[C@H]1c1cccc(F)c1F` [Example 8, (4R,7S,8S)-8-amino-7-(2,3-difluorophenyl)-5,6,7,8-tetrahydro-4H-cyclohepta[d]thiazol-4-yl 4-(2-oxo-2,3-dihydro-1H-imidazo[4,5-b]pyridin-1-yl)piperidine-1-carboxylate] gave an IC50 of 0.095 nM.
Work on `CC(C)(C)OC(=O)N[C@@H]1c2nccnc2[C@H](OC(=O)N2CCC(n3c(=O)[nH]c4ncccc43)CC2)CC[C@H]1c1cccc(F)c1F` [Example 3, (5R,8S,9S)-9-(tert-butoxycarbonylamino)-8-(2,3-difluorophenyl)-6,7,8,9-tetrahydro-5H-cyclohepta[b]pyrazin-5-yl 4-(2-oxo-2,3-dihydro-1H-imidazo[4,5-b]pyridin-1-yl)piperidine-1-carboxylate] yielded an IC50 of 1.1 nM.
For `N[C@@H]1c2nccnc2[C@H](OC(=O)N2CCC(n3c(=O)[nH]c4ncccc43)CC2)CC[C@H]1c1cccc(F)c1F` [Example 4, (5R,8S,9S)-9-amino-8-(2,3-difluorophenyl)-6,7,8,9-tetrahydro-5H-cyclohepta[b]pyrazin-5-yl 4-(2-oxo-2,3-dihydro-1H-imidazo[4,5-b]pyridin-1-yl)piperidine-1-carboxylate], the IC50 was 0.11 nM.
`N[C@@H]1c2sc(C(F)(F)F)nc2[C@H](OC(=O)N2CCC(n3c(=O)[nH]c4ncccc43)CC2)CC[C@H]1c1cccc(F)c1F` [Example 9, (4R,7S,8S)-8-amino-7-(2,3-difluorophenyl)-2-(trifluoromethyl)-5,6,7,8-tetrahydro-4H-cyclohepta[d]thiazol-4-yl 4-(2-oxo-2,3-dihydro-1H-imidazo[4,5-b]pyridin-1-yl)piperidine-1-carboxylate] showed an IC50 of 0.13 nM.
`CC(C)(C)OC(=O)N[C@@H]1c2nccnc2[C@H](NC(=O)N2CCC(n3c(=O)n(COCC[Si](C)(C)C)c4ncccc43)CC2)CC[C@H]1c1cccc(F)c1F` [Example 6, tert-butyl (5S,6S,9R)-6-(2,3-difluorophenyl)-9-(4-(2-oxo-3-((2-(trimethylsilyl)ethoxy)methyl)-2,3-dihydro-1H-imidazo[4,5-b]pyridin-1-yl)piperidine-1-carboxamido)-6,7,8,9-tetrahydro-5H-cyclohepta[b]pyrazin-5-ylcarbamate] gave an IC50 of 910 nM.
Work on `CC(C)(C)OC(=O)N[C@@H]1c2nccnc2C(CC(=O)N2CCC(n3c(=O)[nH]c4ncccc43)CC2)=CC[C@H]1c1cccc(F)c1F` [Example 1, tert-butyl (5S,6S,Z)-6-(2,3-difluorophenyl)-9-(2-oxo-2-(4-(2-oxo-2,3-dihydro-1H-imidazo[4,5-b]pyridin-1-yl)piperidin-1-yl)ethyl)-6,7-dihydro-5H-cyclohepta[b]pyrazin-5-ylcarbamate] yielded an IC50 of 570 nM.
`N[C@@H]1c2nccnc2[C@H](NC(=O)N2CCC(n3c(=O)[nH]c4ncccc43)CC2)CC[C@H]1c1cccc(F)c1F` [Example 7, N-((5R,8S,9S)-9-amino-8-(2,3-difluorophenyl)-6,7,8,9-tetrahydro-5H-cyclohepta[b]pyrazin-5-yl)-4-(2-oxo-2,3-dihydro-1H-imidazo[4,5-b]pyridin-1-yl)piperidine-1-carboxamide] showed an IC50 of 1.1 nM.
`CC(C)(C)OC(=O)N[C@@H]1c2nccnc2[C@H](NC(=O)N2CCC(n3c(OCOCC[Si](C)(C)C)nc4ncccc43)CC2)CC[C@H]1c1cccc(F)c1F` [Example 5, tert-butyl (5S,6S,9R)-6-(2,3-difluorophenyl)-9-(4-(2-((2-(trimethylsilyl)ethoxy)methoxy)-1H-imidazo[4,5-b]pyridin-1-yl)piperidine-1-carboxamido)-6,7,8,9-tetrahydro-5H-cyclohepta[b]pyrazin-5-ylcarbamate] gave an IC50 of 74 nM.
`N[C@@H]1c2nccnc2C(CC(=O)N2CCC(n3c(=O)[nH]c4ncccc43)CC2)=CC[C@H]1c1cccc(F)c1F` [Example 2, 1-(1-(2-((5S,6S,Z)-5-amino-6-(2,3-difluorophenyl)-6,7-dihydro-5H-cyclohepta[b]pyrazin-9-yl)acetyl)piperidin-4-yl)-1H-imidazo[4,5-b]pyridin-2(3H)-one] was tested, and the IC50 was 470 nM.
